Tests used:
BJeLR = assay: Modulatory profiling: Alamar Blue viability, lethal compound cotreated with death modulator (EC50, AUC); assay type: cell-based, human; set-up: AUC, modulator BJ.Gd3+ / AUC, modulator BJ.LNAME / AUC, modulator BJ.Lmin / AUC, modulator BJ.3MA / AUC, modulator BJ.ALLN / AUC, modulator BJ.Boc D / AUC, modulator BJ.CHX / AUC, modulator BJ.Co2+ / AUC, modulator BJ.Nec-1 / AUC, modulator BJ.Pepstatin / AUC, modulator BJ.TLCK / AUC, modulator BJ.atoc / AUC, modulator BJ.trolox / AUC, modulator BJ.zVAD: unit not given beside the values; conditions: BJeLR cells, modulatory profile value (AUC); for AUC, modulator BJ.3MA: lethal compound cotreated with modulator 3MA; for AUC, modulator BJ.ALLN: lethal compound cotreated with modulator ALLN; for AUC, modulator BJ.Boc D: lethal compound cotreated with modulator Boc D; for AUC, modulator BJ.CHX: lethal compound cotreated with modulator CHX; for AUC, modulator BJ.Co2+: lethal compound cotreated with modulator Co2+; for AUC, modulator BJ.DPQ: lethal compound cotreated with modulator DPQ; for AUC, modulator BJ.Gd3+: lethal compound cotreated with modulator Gd3+; for AUC, modulator BJ.LNAME: lethal compound cotreated with modulator LNAME; for AUC, modulator BJ.Lmin/NAD+: lethal compound cotreated with modulator Lmin/NAD+; for AUC, modulator BJ.Lmin: lethal compound cotreated with modulator Lmin; for AUC, modulator BJ.NAD+: lethal compound cotreated with modulator NAD+; for AUC, modulator BJ.NMMA: lethal compound cotreated with modulator NMMA; for AUC, modulator BJ.Nec-1: lethal compound cotreated with modulator Nec-1; for AUC, modulator BJ.Pepstatin: lethal compound cotreated with modulator Pepstatin; for AUC, modulator BJ.TLCK: lethal compound cotreated with modulator TLCK; for AUC, modulator BJ.atoc: lethal compound cotreated with modulator atoc; for AUC, modulator BJ.trolox: lethal compound cotreated with modulator trolox; for AUC, modulator BJ.zVAD: lethal compound cotreated with modulator zVAD; on AUC, modulator BJ.3MA: reference of the scale not given here; on AUC, modulator BJ.ALLN: reference of the scale not given here; on AUC, modulator BJ.Boc D: reference of the scale not given here; on AUC, modulator BJ.CHX: reference of the scale not given here; on AUC, modulator BJ.Co2+: reference of the scale not given here; on AUC, modulator BJ.DPQ: reference of the scale not given here; on AUC, modulator BJ.Gd3+: reference of the scale not given here; on AUC, modulator BJ.LNAME: reference of the scale not given here; on AUC, modulator BJ.NAD+: reference of the scale not given here; on AUC, modulator BJ.NMMA: reference of the scale not given here; on AUC, modulator BJ.Nec-1: reference of the scale not given here; on AUC, modulator BJ.Pepstatin: reference of the scale not given here; on AUC, modulator BJ.TLCK: reference of the scale not given here
HT-1080 = assay: as above; assay type: cell-based; set-up: AUC, modulator HT.3MA / AUC, modulator HT.ALLN / AUC HT.ATA / AUC HT.ActD / AUC HT.BHA / AUC HT.BHT / AUC HT.BocD / AUC HT.CHX / AUC HT.Co2+ / AUC HT.DPQ / AUC HT.EGTA / AUC HT.Lmim / AUC HT.NAD+ / AUC HT.Nec-1 / AUC HT.SP600125 / AUC HT.TLCK / AUC HT.U0126: unit not given beside the values; conditions: for AUC HT.ATA: HT-1080, modulator ATA; for AUC HT.ActD: HT-1080, modulator ActD; for AUC HT.BHA: HT-1080, modulator BHA; for AUC HT.BHT: HT-1080, modulator BHT; for AUC HT.BocD: HT-1080, modulator BocD; for AUC HT.CHX: HT-1080, modulator CHX; for AUC HT.Co2+: HT-1080, modulator Co2+; for AUC HT.CspA: HT-1080, modulator CspA; for AUC HT.DPQ: HT-1080, modulator DPQ; for AUC HT.EGTA: HT-1080, modulator EGTA; for AUC HT.Gd3+: HT-1080, modulator Gd3+; for AUC HT.LNAME: HT-1080, modulator LNAME; for AUC HT.Lmim: HT-1080, modulator Lmim; for AUC HT.NAD+: HT-1080, modulator NAD+; for AUC HT.NMMA: HT-1080, modulator NMMA; for HT.atoc (AUC) / HT.bCarotene (AUC) / HT.deferox (AUC) / HT.digoxin (AUC) / HT.trolox (AUC) / HT.zVAD (AUC): HT-1080; for HT.atoc (AUC): modulator atoc; for HT.bCarotene (AUC): modulator bCarotene; for HT.deferox (AUC): modulator deferox; for HT.digoxin (AUC): modulator digoxin; for HT.trolox (AUC): modulator trolox; for HT.zVAD (AUC): modulator zVAD; for AUC HT.Nec-1: HT-1080, modulator Nec-1; for AUC HT.Pepstatin: HT-1080, modulator Pepstatin; for AUC HT.SP600125: HT-1080, modulator SP600125; for AUC HT.TLCK: HT-1080, modulator TLCK; for AUC HT.U0126: HT-1080, modulator U0126; for AUC, modulator HT.3MA / AUC, modulator HT.ALLN: HT-1080 cells, modulatory profile value (AUC); for AUC, modulator HT.3MA: lethal compound cotreated with modulator 3MA; for AUC, modulator HT.ALLN: lethal compound cotreated with modulator ALLN
Wherever AUC HT.BHA is given: reference of the scale not given here.
Wherever AUC HT.EGTA is given: reference of the scale not given here.

## Cc1[nH]c2c(ccc3ccccc32)c1C1C(CCN)C1(C)C (centres unmarked) [CIL74]
BJeLR
  AUC, modulator BJ.3MA: 0.03615
  AUC, modulator BJ.ALLN: −0.02536
  AUC, modulator BJ.Boc D: 0.04324
  AUC, modulator BJ.CHX: 0.01466
  AUC, modulator BJ.Co2+: 0.2135
  AUC, modulator BJ.DPQ: −0.02906
  AUC, modulator BJ.Gd3+: 0.02963
  AUC, modulator BJ.LNAME: 0.001619
  AUC, modulator BJ.Lmin/NAD+: 0.07154
  AUC, modulator BJ.Lmin: 0.007766
  AUC, modulator BJ.NAD+: −0.05906
  AUC, modulator BJ.NMMA: 0.01059
  AUC, modulator BJ.Nec-1: −0.02489
  AUC, modulator BJ.Pepstatin: 0.08294
  AUC, modulator BJ.TLCK: −0.02942
HT-1080
  AUC HT.ATA: 0.01362
  AUC HT.ActD: 0.02636
  AUC HT.BHA: −0.08659
  AUC HT.BHT: −0.04572
  AUC HT.BocD: 0.01242
  AUC HT.CHX: 0.02524
  AUC HT.Co2+: 0.03244
  AUC HT.CspA: −0.004622
  AUC HT.DPQ: 0.04847
  AUC HT.EGTA: −0.02674
  AUC HT.Gd3+: −0.008213
  AUC HT.LNAME: 0.01925
  AUC HT.Lmim: 0.02034
  AUC HT.NAD+: 0.07664
  AUC HT.NMMA: 9.3282E−05
  HT.atoc (AUC): 0.07412
  HT.bCarotene (AUC): −0.02032
  HT.deferox (AUC): −0.008945
  HT.digoxin (AUC): −0.02586
  HT.trolox (AUC): −0.0236
  HT.zVAD (AUC): 0.01022

## CC[C@]1(O)C[C@@H]2CN(CCc3c([nH]c4ccccc34)[C@@](C(=O)OC)(c3cc4c(cc3OC)N(C)[C@H]3[C@@](O)(C(=O)OC)[C@H](OC(C)=O)[C@]5(CC)C=CCN6CC[C@]43[C@@H]65)C2)C1 [Vinbiastine]
BJeLR
  AUC, modulator BJ.3MA: 0.0131
  AUC, modulator BJ.ALLN: −0.07228
  AUC, modulator BJ.Boc D: 0.001717
  AUC, modulator BJ.CHX: 0.2328
  AUC, modulator BJ.Co2+: 0.1876
  AUC, modulator BJ.DPQ: −0.0312
  AUC, modulator BJ.Gd3+: 0.008351
  AUC, modulator BJ.LNAME: −0.0006349
  AUC, modulator BJ.Lmin/NAD+: 0.1715
  AUC, modulator BJ.Lmin: 0.06584
  AUC, modulator BJ.NAD+: 0.1373
  AUC, modulator BJ.NMMA: 0.008107
  AUC, modulator BJ.Nec-1: −0.06176
  AUC, modulator BJ.Pepstatin: 0.002398
  AUC, modulator BJ.TLCK: −0.003672
  AUC, modulator BJ.atoc: 0.1487
  AUC, modulator BJ.trolox: −0.01145
  AUC, modulator BJ.zVAD: 0.01552
HT-1080
  AUC HT.ATA: 0.09963
  AUC HT.ActD: 0.05584
  AUC HT.BHA: −0.01651
  AUC HT.BHT: 0.01379
  AUC HT.BocD: 0.1256
  AUC HT.CHX: 0.06309
  AUC HT.Co2+: 0.2269
  AUC HT.CspA: −0.1335
  AUC HT.DPQ: 0.003688
  AUC HT.EGTA: 0.01055
  AUC HT.Gd3+: −0.002557
  AUC HT.LNAME: −0.01231
  AUC HT.Lmim: 0.126
  AUC HT.NAD+: 0.1682
  AUC HT.NMMA: −0.003516
  AUC HT.Nec-1: −0.005874
  AUC HT.Pepstatin: −0.0004474
  AUC HT.SP600125: 0.002862
  AUC HT.TLCK: 0.002362
  AUC HT.U0126: 0.1372
  HT.atoc (AUC): 0.1573
  HT.bCarotene (AUC): 0.001945
  HT.deferox (AUC): 0.2847
  HT.digoxin (AUC): 0.1245
  HT.trolox (AUC): −0.001959
  HT.zVAD (AUC): 0.08924
  AUC, modulator HT.3MA: 0.05249
  AUC, modulator HT.ALLN: 0.1527

## CC[C@]1(O)C[C@H]2CN(CCc3c([nH]c4ccccc34)[C@@](C(=O)OC)(c3cc4c(cc3OC)N(C=O)[C@H]3[C@@](O)(C(=O)OC)[C@H](OC(C)=O)[C@]5(CC)C=CCN6CC[C@]43[C@@H]65)C2)C1 [Vincristine]
BJeLR
  AUC, modulator BJ.3MA: −0.03566
  AUC, modulator BJ.ALLN: −0.03171
  AUC, modulator BJ.Boc D: −0.005016
  AUC, modulator BJ.CHX: 0.1955
  AUC, modulator BJ.Co2+: 0.1806
  AUC, modulator BJ.DPQ: −0.03044
  AUC, modulator BJ.Gd3+: 0.007944
  AUC, modulator BJ.LNAME: −0.00717
  AUC, modulator BJ.Lmin/NAD+: 0.1721
  AUC, modulator BJ.Lmin: 0.06034
  AUC, modulator BJ.NAD+: 0.1255
  AUC, modulator BJ.NMMA: −0.003354
  AUC, modulator BJ.Nec-1: −0.05572
  AUC, modulator BJ.Pepstatin: −0.002521
  AUC, modulator BJ.TLCK: −0.01255
  AUC, modulator BJ.atoc: 0.04717
  AUC, modulator BJ.trolox: −0.03305
  AUC, modulator BJ.zVAD: 0.01856
HT-1080
  AUC HT.ATA: 0.1304
  AUC HT.ActD: 0.05976
  AUC HT.BHA: −0.004754
  AUC HT.BHT: −0.01568
  AUC HT.BocD: 0.1401
  AUC HT.CHX: 0.08269
  AUC HT.Co2+: 0.217
  AUC HT.CspA: −0.1876
  AUC HT.DPQ: 0.01267
  AUC HT.EGTA: 0.009231
  AUC HT.Gd3+: −0.0009641
  AUC HT.LNAME: 0.001779
  AUC HT.Lmim: 0.1155
  AUC HT.NAD+: 0.1699
  AUC HT.NMMA: 0.004831
  AUC HT.Nec-1: 0.02188
  AUC HT.Pepstatin: 0.000262
  AUC HT.SP600125: 0.0008998
  AUC HT.TLCK: −0.006394
  AUC HT.U0126: 0.1926
  HT.atoc (AUC): 0.01853
  HT.bCarotene (AUC): 0.01182
  HT.deferox (AUC): 0.3217
  HT.digoxin (AUC): 0.142
  HT.trolox (AUC): −0.01599
  HT.zVAD (AUC): 0.1172
  AUC, modulator HT.3MA: 0.0299
  AUC, modulator HT.ALLN: 0.1869

From US10947188B2, “Small molecule ferroptosis inducers” (THE TRUSTEES OF COLUMBIA UNIVERSITY IN THE CITY OF NEW YORK, priority 2016, dated 2021)
